Measured values from ChEMBL document CHEMBL3431459, “Roche carnitine palmitoyltransferase modulator screening data (supplementary data associated with the publication CHEMBL2216752)”.

How the values were obtained:
[1] = target: T1, Carnitine O-palmitoyltransferase 1, muscle isoform (Homo sapiens, UniProt Q92523); test: SUPPLEMENTARY: Inhibition of Carnitine palmitoyltransferase 1, muscle isoform; set-up: species or system Muscle tissue
T1 sequence (Q92523 whole entry): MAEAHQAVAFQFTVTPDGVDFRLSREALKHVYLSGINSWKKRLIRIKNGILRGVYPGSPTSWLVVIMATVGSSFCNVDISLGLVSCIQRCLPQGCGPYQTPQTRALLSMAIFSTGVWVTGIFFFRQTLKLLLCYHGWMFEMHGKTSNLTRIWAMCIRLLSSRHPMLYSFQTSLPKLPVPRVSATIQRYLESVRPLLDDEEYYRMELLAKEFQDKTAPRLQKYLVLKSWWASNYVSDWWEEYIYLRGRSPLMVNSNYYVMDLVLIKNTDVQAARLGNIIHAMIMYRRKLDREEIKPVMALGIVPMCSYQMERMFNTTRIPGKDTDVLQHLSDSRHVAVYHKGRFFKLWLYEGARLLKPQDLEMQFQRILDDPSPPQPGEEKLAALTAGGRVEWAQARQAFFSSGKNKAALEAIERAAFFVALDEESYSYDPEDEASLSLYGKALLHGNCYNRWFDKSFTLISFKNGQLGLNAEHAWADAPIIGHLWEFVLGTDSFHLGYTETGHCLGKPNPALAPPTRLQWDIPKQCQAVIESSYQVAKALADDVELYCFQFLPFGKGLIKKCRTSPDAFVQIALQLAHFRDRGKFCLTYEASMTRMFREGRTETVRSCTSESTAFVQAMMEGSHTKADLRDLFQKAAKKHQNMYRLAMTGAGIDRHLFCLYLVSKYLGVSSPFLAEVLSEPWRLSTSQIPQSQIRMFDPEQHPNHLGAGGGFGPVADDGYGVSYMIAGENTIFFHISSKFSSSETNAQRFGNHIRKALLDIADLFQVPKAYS

[2] = target: T2, Carnitine O-palmitoyltransferase 2, mitochondrial (Homo sapiens, UniProt P23786); test: (§1) SUPPLEMENTARY: Inhibition of Carnitine palmitoyltransferase 2
T2 sequence (P23786 whole entry): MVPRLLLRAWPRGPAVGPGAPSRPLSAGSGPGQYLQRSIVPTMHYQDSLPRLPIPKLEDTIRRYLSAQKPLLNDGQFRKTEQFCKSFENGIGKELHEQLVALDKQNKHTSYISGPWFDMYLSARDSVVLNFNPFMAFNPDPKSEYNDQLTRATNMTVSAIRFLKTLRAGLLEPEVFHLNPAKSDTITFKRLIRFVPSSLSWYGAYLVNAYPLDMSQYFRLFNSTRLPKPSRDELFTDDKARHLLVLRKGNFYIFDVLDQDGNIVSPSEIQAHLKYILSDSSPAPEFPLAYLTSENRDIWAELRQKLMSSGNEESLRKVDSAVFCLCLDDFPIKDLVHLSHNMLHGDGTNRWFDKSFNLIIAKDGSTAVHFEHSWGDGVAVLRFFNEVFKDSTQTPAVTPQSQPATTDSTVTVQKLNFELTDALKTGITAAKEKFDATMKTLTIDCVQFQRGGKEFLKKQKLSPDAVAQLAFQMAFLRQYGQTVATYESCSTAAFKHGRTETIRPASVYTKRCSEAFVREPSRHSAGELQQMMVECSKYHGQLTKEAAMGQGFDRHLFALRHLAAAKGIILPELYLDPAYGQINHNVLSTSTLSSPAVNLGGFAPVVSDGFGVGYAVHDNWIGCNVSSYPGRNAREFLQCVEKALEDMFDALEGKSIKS

[3] = target: T3, Carnitine O-palmitoyltransferase 2, mitochondrial (Rattus norvegicus, UniProt P18886); test: as §1
T3 sequence (P18886 whole entry): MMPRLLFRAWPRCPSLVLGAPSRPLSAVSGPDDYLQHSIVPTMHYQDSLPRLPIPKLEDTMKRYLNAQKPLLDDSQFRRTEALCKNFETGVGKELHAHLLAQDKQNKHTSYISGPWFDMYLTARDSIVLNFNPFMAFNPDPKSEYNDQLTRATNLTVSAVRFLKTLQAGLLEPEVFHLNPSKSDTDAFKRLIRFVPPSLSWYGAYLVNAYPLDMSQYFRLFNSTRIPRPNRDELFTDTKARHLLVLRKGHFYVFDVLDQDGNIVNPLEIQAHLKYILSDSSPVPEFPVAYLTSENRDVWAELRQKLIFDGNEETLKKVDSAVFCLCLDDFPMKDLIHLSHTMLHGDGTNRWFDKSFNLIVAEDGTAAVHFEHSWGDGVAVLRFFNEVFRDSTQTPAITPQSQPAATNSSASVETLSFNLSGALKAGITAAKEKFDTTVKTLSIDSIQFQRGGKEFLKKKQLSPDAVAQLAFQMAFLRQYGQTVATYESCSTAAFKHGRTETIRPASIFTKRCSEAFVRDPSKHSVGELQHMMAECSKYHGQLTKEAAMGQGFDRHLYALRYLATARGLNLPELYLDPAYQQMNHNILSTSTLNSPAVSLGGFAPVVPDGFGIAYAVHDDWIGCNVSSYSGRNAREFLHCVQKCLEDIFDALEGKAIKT

[4] = target: T4, Carnitine O-palmitoyltransferase 1, liver isoform (Homo sapiens, UniProt P50416); test: (§2) SUPPLEMENTARY: Inhibition of Carnitine palmitoyltransferase 1, liver isoform
T4 sequence (P50416 whole entry): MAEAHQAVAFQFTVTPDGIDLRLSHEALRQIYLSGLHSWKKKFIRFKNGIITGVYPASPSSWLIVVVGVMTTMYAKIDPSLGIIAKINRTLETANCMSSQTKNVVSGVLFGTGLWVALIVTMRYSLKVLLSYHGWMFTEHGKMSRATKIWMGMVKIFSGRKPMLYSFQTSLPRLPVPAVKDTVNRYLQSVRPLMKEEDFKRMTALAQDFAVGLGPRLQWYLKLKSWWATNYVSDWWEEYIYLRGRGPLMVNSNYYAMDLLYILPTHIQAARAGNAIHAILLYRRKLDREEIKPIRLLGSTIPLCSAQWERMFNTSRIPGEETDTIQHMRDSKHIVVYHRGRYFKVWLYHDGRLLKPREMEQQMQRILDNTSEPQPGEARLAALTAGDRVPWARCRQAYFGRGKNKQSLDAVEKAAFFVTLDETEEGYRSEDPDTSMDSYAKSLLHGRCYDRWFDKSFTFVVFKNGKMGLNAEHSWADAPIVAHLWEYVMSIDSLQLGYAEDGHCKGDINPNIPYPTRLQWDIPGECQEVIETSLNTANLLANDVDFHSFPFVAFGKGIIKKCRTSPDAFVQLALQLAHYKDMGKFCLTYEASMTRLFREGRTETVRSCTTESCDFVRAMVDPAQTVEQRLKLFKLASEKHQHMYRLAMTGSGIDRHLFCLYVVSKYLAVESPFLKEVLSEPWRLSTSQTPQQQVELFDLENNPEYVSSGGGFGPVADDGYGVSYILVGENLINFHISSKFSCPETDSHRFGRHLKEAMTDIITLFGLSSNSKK

[5] = target: T5, Carnitine O-palmitoyltransferase 1, liver isoform (Rattus norvegicus, UniProt P32198); test: as §2
T5 sequence (P32198 whole entry): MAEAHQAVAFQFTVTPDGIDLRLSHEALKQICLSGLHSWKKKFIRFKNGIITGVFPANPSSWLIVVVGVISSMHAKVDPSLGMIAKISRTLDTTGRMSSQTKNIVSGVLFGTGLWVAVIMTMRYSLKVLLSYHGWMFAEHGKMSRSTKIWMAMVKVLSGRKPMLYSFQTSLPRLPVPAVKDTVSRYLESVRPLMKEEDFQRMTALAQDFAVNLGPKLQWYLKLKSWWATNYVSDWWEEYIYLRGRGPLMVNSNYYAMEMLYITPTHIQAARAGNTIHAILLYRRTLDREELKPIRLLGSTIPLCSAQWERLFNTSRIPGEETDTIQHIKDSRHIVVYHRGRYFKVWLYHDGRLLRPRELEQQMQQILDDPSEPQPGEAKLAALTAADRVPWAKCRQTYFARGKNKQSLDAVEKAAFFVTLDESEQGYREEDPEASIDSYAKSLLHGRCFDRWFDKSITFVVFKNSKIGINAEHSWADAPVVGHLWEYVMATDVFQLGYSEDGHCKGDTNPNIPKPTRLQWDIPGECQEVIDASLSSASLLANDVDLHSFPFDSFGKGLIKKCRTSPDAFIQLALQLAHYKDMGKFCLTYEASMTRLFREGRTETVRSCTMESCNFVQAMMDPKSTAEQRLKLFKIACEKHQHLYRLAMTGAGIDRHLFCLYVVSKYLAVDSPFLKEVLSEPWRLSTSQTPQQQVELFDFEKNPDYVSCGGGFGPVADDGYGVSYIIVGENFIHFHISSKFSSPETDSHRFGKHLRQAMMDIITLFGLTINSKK

IC50 [1] [µM] | IC50 [2] [µM] | IC50 [3] [µM] | IC50 [4] [µM] | IC50 [5] [µM] | Compound
> 100 | > 100 | > 100 | 1.38 | 1.23 | O=C(COc1ccccc1)N1CCCC[C@@H]1c1nc(-c2ccc(Cl)cc2)cs1
> 100 | > 100 | > 100 | > 10 | > 10 | COc1ccc(Cl)cc1[S+]([O-])c1c[nH]c2ccc(C(=O)Nc3ccccc3)cc12 (stereo not given)
> 100 | > 100 | > 100 | 0.162 | 0.381 | COc1ccc(Cl)cc1S(=O)(=O)c1c2cc(C(=O)Nc3ccccc3)ccc2nn1C
5.32 | > 100 | > 100 | 0.337 | 0.792 | COCCN(c1cc(C(=O)Nc2ccn(CC(=O)O)n2)cc2c1OCO2)S(=O)(=O)c1cc(Cl)ccc1OC
> 100 | 17.4 | > 100 | 0.123 | 0.607 | CS(=O)(=O)c1ccc(-n2nnc([C@H]3CCCCN3C(=O)COc3ccccc3)n2)cc1
1.76 | > 100 | > 100 | 0.324 | 0.252 | CCCN(c1cc(C(=O)Nc2ccn(CC(=O)O)n2)cc2c1OCO2)S(=O)(=O)c1cc(Cl)ccc1OC
0.914 | > 100 | > 100 | 0.315 | 0.157 | COCCN(c1cc(C(=O)Nc2ncc(CC(=O)O)s2)cc2c1OCO2)S(=O)(=O)c1cc(Cl)ccc1OC
> 100 | 1.44 | 16 | 0.325 | 2.91 | COc1ccc(Cl)cc1S(=O)(=O)N1CCOc2c(C(F)F)cc(C(=O)Nc3ccc(C(=O)O)cc3)cc21
> 100 | > 100 | > 100 | 0.172 | 0.102 | COc1ccc(Cl)cc1S(=O)(=O)c1n[nH]c2ccc(C(=O)Nc3ccccc3)cc12
> 100 | > 100 | > 100 | 0.197 | 0.256 | O=C(COc1ccccc1)N1CCCC[C@@H]1c1nnn(-c2ccc(F)cc2)n1
> 100 | 24.2 | > 100 | 0.159 | 0.103 | COc1ccc(-n2nnc([C@H]3CCCCN3C(=O)COc3ccccc3)n2)cc1
31.9 | > 100 | > 100 | 0.0466 | 0.0153 | COc1ccc(Cl)cc1S(=O)(=O)N1C[C@H](C(=O)O)Oc2ccc(C(=O)Nc3ccccc3)cc21
0.857 | > 100 | > 100 | 0.391 | 0.362 | COc1ccc(Cl)cc1S(=O)(=O)N(C)c1cc(C(=O)Nc2ccc(CC(=O)O)cc2)cc2c1OCO2
5.28 | > 100 | > 100 | 1.07 | 6.02 | COc1ccc(Cl)cc1S(=O)(=O)N(c1cc(C(=O)Nc2ccn(CC(=O)O)n2)cc2c1OCO2)C(C)C
> 100 | > 100 | 28 | > 10 | > 10 | O=C(O)c1ccccc1CCc1ccc(NS(=O)(=O)c2ccc(Cl)cc2)cc1
> 100 | 0.193 | 0.643 | 0.103 | 0.0727 | O=C([C@H]1CCCCN1C(=O)COc1ccccc1)N1Cc2ccc(OC3CCOCC3)cc2C1
> 100 | 0.551 | 1.33 | 0.118 | 0.0357 | O=C([C@H]1CCCCN1C(=O)COc1ccccc1)N1Cc2ccc(O[C@H]3CCOC3)cc2C1
> 100 | > 100 | > 100 | 0.0887 | 0.489 | O=C(COc1ccccc1)N1CCNCC1c1nc(-c2ccc(N3CCOCC3)cc2)no1 (stereo not given)
70.7 | 26.4 | 50.4 | 0.223 | 0.84 | O=C1Nc2ccc(-c3n[nH]c([C@H]4CCCCN4C(=O)COc4ccccc4)n3)cc2CO1
1.68 | 21.3 | 35.1 | 0.0416 | 0.0158 | COc1ccc(Cl)cc1S(=O)(=O)c1nn(C)c2ccc(C(=O)Nc3ccc(C(=O)O)c(Cl)c3)cc12

Compound | IC50 [1] [µM] | IC50 [2] [µM] | IC50 [3] [µM] | IC50 [4] [µM] | IC50 [5] [µM]
O=C(NCc1ccc(-c2nnn[nH]2)cc1)c1nn(Cc2ccc(OC(F)F)cc2)c2ccc(F)cc12 | 8.51 | > 100 | > 100 | 0.221 | 0.394
